Assay results from ChEMBL document CHEMBL5038642, “Synthesis and Antiviral Activities of Neoechinulin B and Its Derivatives” (J Nat Prod, 2022).
pIC50: −log10 of the molar value. The source made the active and inactive calls. No cut-off for these calls is given here.

What was measured:
Hepatitis C virus = experiment: Antiviral activity against HCV JFH-1 infected in human Huh-7.5.1 cells assessed as reduction in viral replication measured after 72 hrs by chemiluminescent enzyme immunoassay; type: functional, organism-based, Hepacivirus hominis
Huh7.5.1 = experiment: Cytotoxicity against human Huh-7.5.1 cells assessed as reduction in cell viability measured at 72 hrs by MTT assay; type: functional
SARS-CoV-2 = experiment: Antiviral activity against SARS-CoV-2 WK-251 infected in African green monkey Vero E6 cells expressing TMPRSS2 assessed as reduction in viral RNA replication incubated for 24 hrs by qRT-PCR analysis; type: functional, organism-based, Severe acute respiratory syndrome coronavirus 2; settings: for pIC50: Severe acute respiratory syndrome coronavirus 2, WK-251, Vero C1008, 24 h
[1] = Cytotoxicity against African green monkey Vero E6 cells expressing TMPRSS2 assessed as reduction in cell viability incubated for 24 hrs by DAPI staining based confocal microscopic analysis; type: toxicity, Vero C1008; settings: chlorocebus sabaeus
Huh-7.5.1 [2] = experiment: Antagonist activity at LXR (unknown origin) expressed in human Huh-7.5.1 cells transfected with luciferase reporter plasmid containing of LXRE assessed as reduction in T0901317-induced reporter activity at 30 uM measured after 48 hrs by luciferase reporter assay; type: cell-based
Huh-7.5.1 [3] = experiment: Antagonist activity at LXR (unknown origin) expressed in human Huh-7.5.1 cells transfected with luciferase reporter plasmid containing of LXRE assessed as reduction in T0901317-induced reporter activity at 5 uM measured after 48 hrs by luciferase reporter assay; type: cell-based; settings: filed as antagonist
Huh-7.5.1 [4] = experiment: Antagonist activity at LXR (unknown origin) expressed in human Huh-7.5.1 cells transfected with luciferase reporter plasmid containing of LXRE assessed as reduction in T0901317-induced reporter activity at 10 uM measured after 48 hrs by luciferase reporter assay; type: cell-based; settings: filed as antagonist

## C=c1[nH]c(=O)/c(=C/c2ccc3ccc4cccc5ccc2c3c45)[nH]c1=O
Hepatitis C virus; JFH-1, Huh-7.5.1, 72 h
  pIC50: 5.41
Hepatitis C virus; JFH-1, Huh-7.5.1, time 72 hrs
  IC90: > 20 µM
Huh7.5.1
  CC50: > 20 µM
SARS-CoV-2
  pIC50: < 4.40
SARS-CoV-2; Severe acute respiratory syndrome coronavirus 2, WK-251, Vero C1008, time 24 hrs
  IC90: > 40 µM
[1]
  CC50 at 24 h: > 100 µM

## C=CC(C)(C)c1[nH]c2ccccc2c1C[C@@H]1NC(=O)[C@H](C)NC1=O [PREECHINULIN]
Huh7.5.1
  CC50: > 20 µM

## C=c1[nH]c(=O)/c(=C/c2ccc(C(F)(F)F)cc2)[nH]c1=O
Huh7.5.1
  CC50: > 20 µM
SARS-CoV-2
  pIC50: 5.04

## C=c1[nH]c(=O)/c(=C/c2cc(OC)c(OC)c(OC)c2)[nH]c1=O
Huh7.5.1
  CC50: > 20 µM

## C=c1[nH]c(=O)/c(=C/c2ccc(-c3ccccc3)cc2)[nH]c1=O
Huh7.5.1
  CC50: > 20 µM

## C=c1[nH]c(=O)/c(=C/c2ccc(N(C)C)cc2)[nH]c1=O
Huh7.5.1
  CC50: > 20 µM

## C=c1[nH]c(=O)/c(=C/c2ccc(OC)cc2)[nH]c1=O
Huh7.5.1
  CC50: > 20 µM

## C=c1[nH]c(=O)/c(=C/c2ccccc2)[nH]c1=O
Huh7.5.1
  CC50: > 20 µM
Huh-7.5.1 [2]
  Activity: inactive

## C=c1[nH]c(=O)/c(=C/c2c[nH]c3ccccc23)[nH]c1=O
Huh7.5.1
  CC50: > 20 µM

## C=c1[nH]c(=O)/c(=C/c2ccc(C(C)(C)C)cc2)[nH]c1=O
Huh7.5.1
  CC50: > 20 µM
Huh-7.5.1 [3]
  Activity: Active

## C=c1[nH]c(=O)/c(=C/c2ccsc2)[nH]c1=O
Huh7.5.1
  CC50: > 20 µM

## C=c1[nH]c(=O)/c(=C/c2ccc3ccccc3c2)[nH]c1=O
Huh7.5.1
  CC50: > 20 µM

## C=c1[nH]c(=O)/c(=C/c2ccc(C)cc2)[nH]c1=O
Huh7.5.1
  CC50: > 20 µM

## C=c1[nH]c(=O)/c(=C/c2cc(C(C)(C)C)cc(C(C)(C)C)c2)[nH]c1=O
Huh7.5.1
  CC50: > 20 µM

## C=CC(C)(C)c1[nH]c2ccccc2c1/C=C1\NC(=O)C(C)(OC)NC1=O (stereo not drawn) [VARIECOLORIN H]
Huh7.5.1
  CC50: > 20 µM

## C=c1[nH]c(=O)/c(=C/c2ccc(OC)c(OC)c2)[nH]c1=O
Huh7.5.1
  CC50: > 20 µM

## C=c1[nH]c(=O)/c(=C/c2ccoc2)[nH]c1=O
Huh7.5.1
  CC50: > 20 µM

## C=c1[nH]c(=O)/c(=C/c2ccc(C(=O)OC)cc2)[nH]c1=O
Huh7.5.1
  CC50: > 20 µM

## C=CC(C)(C)c1[nH]c2ccccc2c1/C=c1\[nH]c(=O)c(=C)[nH]c1=O [NEOECHINULIN B]
Huh7.5.1
  CC50: > 20 µM
Huh-7.5.1 [4]
  Activity: Active
